Data on 17 compounds can be found in ChEMBL document CHEMBL1201862, “PubChem BioAssay data set” (2004).

Structures are written as SMILES. Active and inactive are the calls of the source. Bounds are passed on as bounds.

A short description of assay [1]: A Cell Based Secondary Assay To Explore Cytotoxicity of Compounds that Sensitize Mycobacterium Tuberculosis to Beta-Lactam Antibiotics. It counts as functional.
Another assay addresses T1, Estrogen receptor (Homo sapiens, UniProt P03372).
T1 sequence (P03372 whole entry): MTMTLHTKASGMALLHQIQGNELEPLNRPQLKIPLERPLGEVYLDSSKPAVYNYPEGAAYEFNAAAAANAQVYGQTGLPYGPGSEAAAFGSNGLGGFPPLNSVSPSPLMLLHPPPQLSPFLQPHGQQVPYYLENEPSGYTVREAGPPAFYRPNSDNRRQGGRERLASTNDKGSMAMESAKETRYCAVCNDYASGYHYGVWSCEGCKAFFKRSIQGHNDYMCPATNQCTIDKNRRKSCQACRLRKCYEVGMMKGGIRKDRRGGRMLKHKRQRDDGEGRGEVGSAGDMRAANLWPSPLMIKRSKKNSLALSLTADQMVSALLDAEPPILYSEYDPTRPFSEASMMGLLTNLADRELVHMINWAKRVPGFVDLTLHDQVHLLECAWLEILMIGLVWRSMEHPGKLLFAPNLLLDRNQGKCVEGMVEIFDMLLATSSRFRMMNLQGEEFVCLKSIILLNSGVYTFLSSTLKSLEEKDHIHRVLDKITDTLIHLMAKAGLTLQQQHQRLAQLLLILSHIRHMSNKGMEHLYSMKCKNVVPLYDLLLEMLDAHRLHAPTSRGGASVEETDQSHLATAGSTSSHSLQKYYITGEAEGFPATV

For a further assay, the target named is T2, fMet-Leu-Phe receptor (Homo sapiens, UniProt P21462).
T2 sequence (P21462 whole entry): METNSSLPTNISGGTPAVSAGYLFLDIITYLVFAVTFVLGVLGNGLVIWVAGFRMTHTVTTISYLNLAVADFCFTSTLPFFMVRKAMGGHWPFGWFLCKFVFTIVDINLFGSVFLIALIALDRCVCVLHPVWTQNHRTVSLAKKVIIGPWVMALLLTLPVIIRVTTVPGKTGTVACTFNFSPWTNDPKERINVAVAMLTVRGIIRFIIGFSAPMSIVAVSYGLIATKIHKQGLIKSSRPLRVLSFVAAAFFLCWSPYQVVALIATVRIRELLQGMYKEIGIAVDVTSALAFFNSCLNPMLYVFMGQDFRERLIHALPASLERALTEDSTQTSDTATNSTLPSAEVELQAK
As to the kind of experiment: formyl peptide receptor binders – dose response (AID 519). Type of assay: functional.

Assay [2] is described as follows: A cytotoxicity screen of small molecule inhibitors of the PhoP region in Salmonella typhi identified in the primary screen. [Related pubchem assays: 1850, 1864, 1985 ]. Type of assay: functional.
The target in assay [3] is T3, Voltage-gated N-type calcium channel alpha-1B subunit/Amyloid beta A4 precursor protein-binding family A member 1 (Homo sapiens, UniProt Q00975+Q02410). It counts as protein assay.
T3 sequence (Q00975 whole entry): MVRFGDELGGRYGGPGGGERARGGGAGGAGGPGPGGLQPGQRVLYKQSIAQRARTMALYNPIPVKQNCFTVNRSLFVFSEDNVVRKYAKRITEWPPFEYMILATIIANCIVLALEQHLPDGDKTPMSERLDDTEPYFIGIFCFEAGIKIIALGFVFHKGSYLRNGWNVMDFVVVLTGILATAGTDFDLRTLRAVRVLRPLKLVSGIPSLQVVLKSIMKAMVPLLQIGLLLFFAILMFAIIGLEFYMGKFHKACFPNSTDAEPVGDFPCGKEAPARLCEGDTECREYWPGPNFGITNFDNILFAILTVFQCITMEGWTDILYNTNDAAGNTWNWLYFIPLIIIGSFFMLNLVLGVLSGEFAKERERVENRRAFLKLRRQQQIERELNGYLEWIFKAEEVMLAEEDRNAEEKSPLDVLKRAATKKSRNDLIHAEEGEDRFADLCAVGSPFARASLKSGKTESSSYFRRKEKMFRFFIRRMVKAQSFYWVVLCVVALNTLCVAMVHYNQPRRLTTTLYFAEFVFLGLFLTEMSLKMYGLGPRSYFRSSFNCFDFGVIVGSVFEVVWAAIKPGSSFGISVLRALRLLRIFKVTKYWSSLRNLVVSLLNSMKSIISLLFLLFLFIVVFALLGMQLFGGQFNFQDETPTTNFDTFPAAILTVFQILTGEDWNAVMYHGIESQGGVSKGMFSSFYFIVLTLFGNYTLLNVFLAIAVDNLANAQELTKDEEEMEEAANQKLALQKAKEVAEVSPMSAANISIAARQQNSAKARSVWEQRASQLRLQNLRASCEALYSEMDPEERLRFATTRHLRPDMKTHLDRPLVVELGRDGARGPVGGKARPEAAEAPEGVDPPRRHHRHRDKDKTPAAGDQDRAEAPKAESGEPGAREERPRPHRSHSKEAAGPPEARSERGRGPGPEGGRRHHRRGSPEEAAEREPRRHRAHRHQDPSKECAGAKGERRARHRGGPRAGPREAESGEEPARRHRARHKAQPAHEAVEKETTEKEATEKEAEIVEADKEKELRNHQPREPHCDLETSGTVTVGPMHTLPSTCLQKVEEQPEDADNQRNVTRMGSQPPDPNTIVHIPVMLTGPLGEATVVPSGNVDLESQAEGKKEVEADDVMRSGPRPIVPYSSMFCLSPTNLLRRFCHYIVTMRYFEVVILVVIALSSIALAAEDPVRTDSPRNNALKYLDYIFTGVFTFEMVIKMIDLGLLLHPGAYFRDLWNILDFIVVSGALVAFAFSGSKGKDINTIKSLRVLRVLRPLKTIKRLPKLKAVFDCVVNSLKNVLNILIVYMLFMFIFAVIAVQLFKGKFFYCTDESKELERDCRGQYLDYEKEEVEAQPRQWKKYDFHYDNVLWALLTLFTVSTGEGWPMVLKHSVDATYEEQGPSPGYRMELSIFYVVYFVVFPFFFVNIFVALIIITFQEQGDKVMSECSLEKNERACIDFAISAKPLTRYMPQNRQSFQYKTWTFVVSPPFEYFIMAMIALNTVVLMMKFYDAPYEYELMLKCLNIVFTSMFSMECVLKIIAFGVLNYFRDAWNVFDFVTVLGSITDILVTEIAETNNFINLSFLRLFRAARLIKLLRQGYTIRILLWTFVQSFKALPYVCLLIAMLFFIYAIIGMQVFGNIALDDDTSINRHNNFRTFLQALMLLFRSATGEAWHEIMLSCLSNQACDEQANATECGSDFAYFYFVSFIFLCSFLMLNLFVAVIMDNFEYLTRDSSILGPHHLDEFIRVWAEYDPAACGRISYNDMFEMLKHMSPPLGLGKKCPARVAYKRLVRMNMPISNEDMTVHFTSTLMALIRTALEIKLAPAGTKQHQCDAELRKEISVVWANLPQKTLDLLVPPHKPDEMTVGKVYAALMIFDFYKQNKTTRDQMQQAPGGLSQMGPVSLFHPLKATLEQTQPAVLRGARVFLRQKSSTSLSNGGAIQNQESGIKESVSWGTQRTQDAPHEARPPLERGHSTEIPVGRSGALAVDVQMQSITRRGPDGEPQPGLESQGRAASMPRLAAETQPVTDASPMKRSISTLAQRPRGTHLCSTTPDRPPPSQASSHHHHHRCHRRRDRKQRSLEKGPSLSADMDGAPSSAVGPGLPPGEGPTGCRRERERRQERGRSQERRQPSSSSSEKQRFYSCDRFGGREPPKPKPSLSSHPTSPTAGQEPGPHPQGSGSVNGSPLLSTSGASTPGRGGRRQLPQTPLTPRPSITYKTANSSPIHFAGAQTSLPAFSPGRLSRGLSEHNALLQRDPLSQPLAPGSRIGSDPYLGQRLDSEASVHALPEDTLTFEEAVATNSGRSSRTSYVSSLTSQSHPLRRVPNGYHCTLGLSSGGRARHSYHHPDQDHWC
T3 sequence (Q02410 whole entry): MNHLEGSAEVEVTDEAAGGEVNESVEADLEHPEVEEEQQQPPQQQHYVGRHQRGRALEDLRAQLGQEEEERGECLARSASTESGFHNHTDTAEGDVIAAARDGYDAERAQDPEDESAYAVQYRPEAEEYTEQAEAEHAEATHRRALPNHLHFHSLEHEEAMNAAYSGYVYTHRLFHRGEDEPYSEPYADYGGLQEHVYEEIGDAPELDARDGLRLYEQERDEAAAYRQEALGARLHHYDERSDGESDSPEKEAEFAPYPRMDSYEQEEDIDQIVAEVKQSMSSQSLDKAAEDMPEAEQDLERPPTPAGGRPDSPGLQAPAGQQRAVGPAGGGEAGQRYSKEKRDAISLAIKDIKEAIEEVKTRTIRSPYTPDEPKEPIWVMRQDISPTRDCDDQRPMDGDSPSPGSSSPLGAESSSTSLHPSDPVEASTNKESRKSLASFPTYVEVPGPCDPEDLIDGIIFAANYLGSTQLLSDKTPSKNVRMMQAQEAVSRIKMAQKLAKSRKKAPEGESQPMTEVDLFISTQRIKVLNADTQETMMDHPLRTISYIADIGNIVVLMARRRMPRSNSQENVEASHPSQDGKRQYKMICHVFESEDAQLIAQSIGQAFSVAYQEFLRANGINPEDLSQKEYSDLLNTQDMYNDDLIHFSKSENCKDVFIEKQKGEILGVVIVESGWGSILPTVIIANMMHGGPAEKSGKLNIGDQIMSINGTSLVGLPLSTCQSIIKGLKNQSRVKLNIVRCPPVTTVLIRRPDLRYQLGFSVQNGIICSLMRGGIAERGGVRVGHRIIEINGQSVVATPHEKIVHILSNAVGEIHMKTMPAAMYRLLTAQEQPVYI
Assay [4] deals with T3, Voltage-gated N-type calcium channel alpha-1B subunit/Amyloid beta A4 precursor protein-binding family A member 1. Type of assay: protein assay. The source holds these as a separate data set.
Assay [5] deals with T4, Short transient receptor potential channel 4 (Mus musculus, UniProt Q9QUQ5).
T4 sequence (Q9QUQ5 whole entry): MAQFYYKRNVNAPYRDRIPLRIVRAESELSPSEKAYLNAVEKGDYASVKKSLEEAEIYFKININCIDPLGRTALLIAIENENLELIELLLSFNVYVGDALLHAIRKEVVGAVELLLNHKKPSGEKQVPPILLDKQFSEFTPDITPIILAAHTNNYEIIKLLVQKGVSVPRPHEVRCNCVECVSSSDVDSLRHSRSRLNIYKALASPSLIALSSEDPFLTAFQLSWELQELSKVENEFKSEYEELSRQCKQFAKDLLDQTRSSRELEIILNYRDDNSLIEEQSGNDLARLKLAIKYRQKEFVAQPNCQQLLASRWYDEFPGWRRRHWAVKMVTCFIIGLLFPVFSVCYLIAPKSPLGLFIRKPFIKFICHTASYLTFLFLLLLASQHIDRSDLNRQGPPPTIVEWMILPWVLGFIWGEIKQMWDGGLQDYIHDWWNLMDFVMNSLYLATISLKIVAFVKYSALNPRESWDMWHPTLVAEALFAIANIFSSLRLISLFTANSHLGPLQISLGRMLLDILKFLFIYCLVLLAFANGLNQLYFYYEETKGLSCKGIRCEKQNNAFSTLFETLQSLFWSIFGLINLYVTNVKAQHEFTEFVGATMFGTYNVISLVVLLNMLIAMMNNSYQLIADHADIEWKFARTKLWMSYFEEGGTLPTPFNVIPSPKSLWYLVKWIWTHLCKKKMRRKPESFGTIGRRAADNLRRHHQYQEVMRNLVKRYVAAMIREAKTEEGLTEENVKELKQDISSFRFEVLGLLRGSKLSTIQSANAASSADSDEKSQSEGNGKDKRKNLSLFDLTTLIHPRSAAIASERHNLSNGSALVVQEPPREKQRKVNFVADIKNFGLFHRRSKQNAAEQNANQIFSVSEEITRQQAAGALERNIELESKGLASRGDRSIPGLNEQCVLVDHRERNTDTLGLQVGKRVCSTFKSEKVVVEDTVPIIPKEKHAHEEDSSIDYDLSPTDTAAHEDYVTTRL
Kind of assay: block of DAMGO-driven TRPC4 calcium entry – cell-based, HEK293 TRPC4/mu-opioid, Fluo-4 calcium, dose response (AID 434942).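 Also: potency of inhibitors blocking the TRPC4 calcium response.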 It counts as functional.

Assay [6] has as its target Eukaryotic translation initiation factor 4E (Mus musculus, UniProt P63073). As to the kind of experiment: blockers of eIF4G binding by eIF4E – biochemical, TR-FRET, dose response (AID 855).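 Also: potency for disrupting eIF4E binding to eIF4GI seen as loss of FRET.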 Type of assay: functional. (In TR-FRET formats the signal depends on donor and acceptor labels being close together.)
A short description of assay [7]: Trypanosoma cruzi growth suppression in host cells – NIH3T3 host cells, beta-gal luminescence, confirmation (AID 2044).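 Also: intracellular parasites grown in NIH/3T3 mouse fibroblasts as host cells; luminescent beta-galactosidase reporter signal from transgenic T. cruzi replicating inside host cells; inhibitors lower the luminescence signal.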 It counts as functional, cell-based.
Assay [8] is described as follows: NIH3T3 cell viability loss – ATP luminescence, mouse fibroblasts, counter-screen, dose response (AID 2010).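 Also: cells exposed to compound for about 90 hours before reading.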 It counts as functional, cell-based.
Assay [9] has as its target Induced myeloid leukemia cell differentiation protein Mcl-1 (Homo sapiens, UniProt Q07820). Type of assay: functional.
Assay [10] deals with T5, Epstein-Barr nuclear antigen 1 (Epstein-Barr virus (strain B95-8) (HHV-4) (Human herpesvirus 4), UniProt P03211).
T5 sequence (P03211 whole entry): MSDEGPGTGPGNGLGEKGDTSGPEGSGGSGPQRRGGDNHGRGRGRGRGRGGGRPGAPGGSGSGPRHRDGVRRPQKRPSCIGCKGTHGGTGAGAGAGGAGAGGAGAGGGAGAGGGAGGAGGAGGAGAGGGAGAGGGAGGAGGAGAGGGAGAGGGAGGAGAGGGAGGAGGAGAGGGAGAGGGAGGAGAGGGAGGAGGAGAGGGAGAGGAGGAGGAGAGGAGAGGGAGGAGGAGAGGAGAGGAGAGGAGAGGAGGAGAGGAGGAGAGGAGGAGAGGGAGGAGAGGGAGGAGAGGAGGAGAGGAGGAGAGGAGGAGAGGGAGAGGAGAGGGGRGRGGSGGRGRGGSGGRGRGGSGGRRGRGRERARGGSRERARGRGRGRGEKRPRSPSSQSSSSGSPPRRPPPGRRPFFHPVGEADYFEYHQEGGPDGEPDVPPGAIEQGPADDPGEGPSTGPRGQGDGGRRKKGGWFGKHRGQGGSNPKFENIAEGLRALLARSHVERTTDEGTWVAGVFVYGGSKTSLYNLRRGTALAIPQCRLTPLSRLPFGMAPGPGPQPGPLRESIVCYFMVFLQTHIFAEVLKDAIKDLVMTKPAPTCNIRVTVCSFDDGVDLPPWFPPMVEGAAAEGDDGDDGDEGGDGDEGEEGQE
Kind of assay: inhibition of EBV nuclear antigen 1 DNA binding – biochemical, fluorescence polarization, 1536-well, dose response (AID 2381).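 Also: fluorescence polarization of a Cy5 DNA probe bound by EBNA-1 protein.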 Details: species or system human gammaherpesvirus 4. For orientation: In fluorescence polarisation assays a small probe gives low polarisation when free and higher when bound to something large.

The target of assay [11] is T6, Lytic switch protein BZLF1 (Epstein-Barr virus (strain B95-8) (HHV-4) (Human herpesvirus 4), UniProt P03206).
T6 sequence (P03206 whole entry): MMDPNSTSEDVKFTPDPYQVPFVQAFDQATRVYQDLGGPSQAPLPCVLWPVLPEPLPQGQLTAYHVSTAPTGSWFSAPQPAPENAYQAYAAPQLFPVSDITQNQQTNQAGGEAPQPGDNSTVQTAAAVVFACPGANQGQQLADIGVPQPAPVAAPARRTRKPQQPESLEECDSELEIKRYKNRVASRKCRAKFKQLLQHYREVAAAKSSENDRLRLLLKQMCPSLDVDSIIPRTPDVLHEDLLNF
Kind of assay: inhibition of BZLF1 ZTA DNA binding – biochemical, fluorescence polarization, Epstein-Barr virus, 1536-well, counter-screen for EBNA-1 inhibitor project, dose response (AID 2377).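 Also: fluorescence polarization of Cy5-labelled ZRE DNA probe bound by purified Zta.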 More on the design: species or system human gammaherpesvirus 4.

The test system of a further assay is H9c2. As to the kind of experiment: cells. It counts as functional, cell-based. The following applies: Rattus norvegicus, H9c2, Myocardium.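 Also: confirmatory concentration-response retest of ultra-high-throughput screening hits for modulation of myocardial damage; cell death induced by hydrogen peroxide oxidative stress; compound pretreatment for 60 min then peroxide exposure for 2 h; potency is for protecting the cells against peroxide damage rather than for killing them.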
Assay [12] is described as follows: Luminescence Cell-Based Dose Confirmation HTS to Identify Activators of 5'UTR Stem-Loop Driven Alpha-Synuclein mRNA Translation in H4 Neuroglioblastoma Cells. [Related pubchem assays: 1829 (Project Summary), 1814 (Primary HTS)]. It counts as functional.
The nature of assay [13]: Luminescence Cell-Based Dose Response HTS to Identify Activators of Luciferase Translation or Activity in H4 […] Cells. [Related pubchem assays: 1829 (Project Summary), 1814 (Primary HTS)]. Type of assay: functional.
In the next assay the test system is H4. As to the kind of experiment: Luminescence Cell-Based Dose Response HTS to Identify Activators of 5'UTR Stem-Loop Driven Prion Protein mRNA Translation in H4 Neuroglioblastoma Cells. [Related pubchem assays: 1829 (Project Summary), 1814 (Primary HTS)]. Type of assay: functional. The conditions noted are these: Homo sapiens.

Chain of Eukaryotic translation initiation factor 4E (P63073 whole entry): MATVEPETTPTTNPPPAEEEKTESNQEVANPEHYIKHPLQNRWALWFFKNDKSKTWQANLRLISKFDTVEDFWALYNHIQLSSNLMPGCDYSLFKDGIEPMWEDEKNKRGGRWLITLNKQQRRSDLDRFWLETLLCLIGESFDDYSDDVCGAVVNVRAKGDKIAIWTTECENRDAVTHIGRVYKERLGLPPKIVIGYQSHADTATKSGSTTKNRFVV
Chain of Induced myeloid leukemia cell differentiation protein Mcl-1 (Q07820 whole entry): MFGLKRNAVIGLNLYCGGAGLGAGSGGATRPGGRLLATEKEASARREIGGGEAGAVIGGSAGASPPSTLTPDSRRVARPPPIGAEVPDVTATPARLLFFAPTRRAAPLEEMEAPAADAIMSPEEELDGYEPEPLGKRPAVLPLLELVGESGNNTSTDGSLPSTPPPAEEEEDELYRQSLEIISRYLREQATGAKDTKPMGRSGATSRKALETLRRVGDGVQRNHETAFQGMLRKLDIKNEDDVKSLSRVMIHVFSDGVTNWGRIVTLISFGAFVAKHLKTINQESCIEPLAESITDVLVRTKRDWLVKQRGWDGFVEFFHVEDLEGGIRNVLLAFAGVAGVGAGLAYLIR

Usually CC50 stands for the concentration giving 50% cytotoxicity. For orientation: IC50 means the point on the concentration scale where inhibition reaches its midpoint. A word on the Ki: it is a measure of affinity in units of concentration, obtained from inhibition or displacement. On to `N#Cc1c(C(F)(F)F)cc(-c2ccccc2)nc1SCc1nc(N)nc(N2CCOCC2)n1`, for which the half-maximal cytotoxic concentration (CC50) in [1] was > 40 µM (active). Further, the IC50 against Estrogen receptor was > 50 µM (not active). Moreover, the Ki on fMet-Leu-Phe receptor is > 66.7 µM (inactive).
For orientation: EC50 means the midpoint of the concentration-response curve. On to `COc1ccc(CCNC2CCCCC2)cc1`, for which the EC50 in assay [2] was > 50 µM (active).
Turning to `COC/C=C/C1=CC2=CC(=O)C(C)(OC(=O)c3cnc4ccccc4n3)C(=O)C2=CN1c1ccc(CO)cc1` (configuration not stated), the half-maximal inhibitory concentration (IC50) in [3] is 10.4 µM (active); in assay [4], 11.2 µM (active).
For the compound `Cc1cccc(NC(=S)NC2CCCCC2)n1`, the results for the IC50 in assay [3] and in assay [4] were 9.58 µM (active) and > 50 µM (inactive), respectively.
Consider `O=C(Nc1ccnn1C1CCN(CCCC2CCCC2)CC1)c1ccccc1Cl`, for which, in assay [5], the EC50 is 1.68 µM (active).
Regarding `CCCCn1cnc2cc(NCc3cccc(OC)c3O)ccc21`, the EC50 in [2] was > 50 µM (active).
With `COc1ccc(Sc2nc(-c3ccccc3)ncc2C(=O)O)cc1`, in assay [5], the EC50 was 5.96 µM (active).
Same read-out and setting: the same measure for `CC12CC3(C)CC(C)(C1)CC(NC(=O)N1CCCC1)(C2)C3`: 7.5 µM (active).
Regarding `C/C=C/C=C\C(=O)Nc1cccc(C2=NOC3(C2)C[C@H](C(N)=O)N(C(=O)/C=C/C)C3)c1` (some centres not stated), the results for the IC50 in assay [3] and in assay [4] were 9.88 µM (active) and 6.79 µM (active), respectively.
With `COc1ccc(CNC2=NC(=O)CC(C(=O)Nc3ccc(F)cc3)S2)cc1` (configuration not stated), in assay [6], the IC50 was > 64 µM (inactive).
Consider `COc1ccc(S(=O)(=O)N2CCC(C(=O)NCc3cccc(OC)c3)CC2)cc1`, for which, in assay [6], the IC50 was > 64 µM (inactive).
For `Cc1ccc2[nH]c(O)c(N=Nc3nc4ccccc4s3)c2c1`, the CC50 in [1] was 39.6 µM (active). In addition, the figures for the EC50 in assay [7] and in assay [8] were 3.38 µM (active) and > 60 µM (not active), respectively. Also, the IC50 in [9] was 2.11 µM (active).
For `CSc1ccccc1NC(=O)c1ccccc1C`, the IC50 in assay [6] was 50 µM (inactive).
For the compound `C/C(=N\NC(=O)c1c(Br)c(C)nn1C)c1ccc(NC(=O)c2ccoc2C)cc1`, the EC50 in assay [2] was > 50 µM (active). The IC50 is 15.7 µM (not active) in [10], > 111 µM (not active) in assay [11] and > 79 µM (inactive) with H9c2.
For the compound `COc1ccc(C2CC2/C(=N/O)c2ccccc2)cc1` (configuration not stated), in assay [5], the EC50 was 2.99 µM (active).
For the compound `CCOC(=O)c1ccc(N2Cc3ccccc3/C2=N\C(=O)c2cccc([N+](=O)[O-])c2)cc1`, the EC50 in [2] is > 50 µM (active); in [12], 39.1 µM (active); in assay [13], 12.3 µM (active); in the assay on H4, 6.09 µM (active).
Regarding `COc1ccc(/C=C2\SC(=S)N(CC(=O)NNC(=O)c3ccncc3)C2=O)cc1`, the 50% inhibitory concentration (IC50) is > 56.8 µM (not active) in [3] and > 50 µM (inactive) in assay [4].
